In ChEMBL document CHEMBL2331468, “Antimalarial activities of 6-iodouridine and its prodrugs and potential for combination therapy” (J Med Chem, 2013):
The source made the active and inactive calls. The calls are words filed in the database; no cut-off is given here.

Experiments:
[1] = test system: Plasmodium berghei; assay: Antimalarial activity against Plasmodium berghei infected in ip dosed BALB/C mouse; type: functional, organism-based
[2] = test system: Plasmodium chabaudi; assay: Antimalarial activity against Plasmodium chabaudi chabaudi infected in mouse assessed as reduction in parasitemia at 7.1 mg/day administered as infusion on days 4 to 6; type: functional, organism-based
[3] = test system: Plasmodium falciparum; assay: Antimalarial activity against Plasmodium falciparum FCR3 after 72 hrs by lactate dehydrogenase assay; type: functional; conditions: FCR-3/Gambia
[4] = test system: Plasmodium chabaudi; assay: Antimalarial activity against Plasmodium chabaudi chabaudi infected in mouse assessed as reduction in parasitemia at 6.9 mg/day administered as infusion on days 4 to 6; type: functional, organism-based
[5] = test system: Plasmodium berghei; assay: Antimalarial activity against Plasmodium berghei infected in mouse assessed as reduction of parasitemia at 8 mg/dose, ip on days 4 to 7 relative to untreated control; type: functional, organism-based
[6] = test system: Plasmodium falciparum; assay: Antimalarial activity against mature-stage Plasmodium falciparum assessed as decrease in viability at 4 uM incubated for 3 hrs followed by compound washout measured after 48 hrs by SYBR-Green staining-based fluorescence analysis relative to untreated control; type: functional, organism-based
[7] = test system: CHO; assay: Cytotoxicity against CHO cells at 5 to 250 uM after 48 hrs by MTT assay in presence of uridine; type: cell-based, Cricetulus griseus; conditions: chinese hamster
[8] = Selectivity index for Plasmodium falciparum over Plasmodium berghei in presence of uridine; type: functional
[9] = test system: Mus musculus; assay: Toxicity against BALB/c mouse infected with Plasmodium berghei assessed as loss in body weight at 6 mg/dose, ip in presence of uridine; type: organism-based; conditions: in vivo
[10] = test system: Mus musculus; assay: Toxicity against BALB/c mouse infected with Plasmodium berghei assessed as loss in body weight at 12 mg/dose, ip in presence of uridine; type: organism-based; conditions: in vivo
[11] = test system: Mus musculus; assay: Toxicity against BALB/c mouse infected with Plasmodium berghei assessed as loss in body weight at 3 mg/dose, ip in presence of uridine; type: organism-based; conditions: in vivo
[12] = test system: Plasmodium berghei; assay: Antimalarial activity against Plasmodium berghei infected in BALB/c mouse assessed as reduction in parasitemia at 3 mg/dose, ip on days 5 to 7; type: functional, organism-based
[13] = test system: Plasmodium berghei; assay: Antimalarial activity against Plasmodium berghei infected in BALB/c mouse assessed as reduction in parasitemia at 3 mg/dose, ip on days 5 to 7 in presence of uridine; type: functional, organism-based
[14] = test system: Plasmodium berghei; assay: Antimalarial activity against Plasmodium berghei infected in BALB/c mouse assessed as reduction in parasitemia at 6 to 12 mg/dose, ip on days 5 to 7; type: functional, organism-based
[15] = test system: Plasmodium berghei; assay: Antimalarial activity against Plasmodium berghei infected in BALB/c mouse assessed as reduction in parasitemia at 6 to 12 mg/dose, ip on days 5 to 7 in presence of uridine; type: functional, organism-based
[16] = test system: Plasmodium chabaudi; assay: Antimalarial activity against Plasmodium chabaudi chabaudi infected in BALB/c mouse assessed as reduction in parasitemia at 6 mg/day administered as infusion on days 4 to 6 measured on days 10 to 13; type: functional, organism-based
[17] = test system: Plasmodium chabaudi; assay: Antimalarial activity against Plasmodium chabaudi chabaudi infected in BALB/c mouse assessed as reduction in parasitemia at 6 mg/day administered as infusion on days 4 to 6 measured on days 10 to 13 in presence of uridine; type: functional, organism-based
[18] = test system: Plasmodium berghei; assay: Antimalarial activity against Plasmodium berghei infected in mouse assessed as reduction of parasitemia at 50 ug/dose, ip on days 4 to 7; type: functional, organism-based
[19] = test system: Plasmodium chabaudi; assay: Antimalarial activity against Plasmodium chabaudi chabaudi infected in mouse at 6 mg/day administered as infusion on days 4 to 6 relative to untreated control; type: functional, organism-based
[20] = test system: Plasmodium falciparum; assay: Antimalarial activity against ring-stage Plasmodium falciparum assessed as decrease in viability at 4 uM incubated for 3 hrs followed by compound washout measured after 48 hrs by SYBR-Green staining-based fluorescence analysis relative to untreated control; type: functional, organism-based
[21] = Hemolytic activity against human erythrocytes at 250 uM; type: ADME, cell-based; conditions: erythrocyte
[22] = test system: C32; assay: Cytotoxicity against human C32 cells after 48 hrs by MTT assay in presence of uridine; type: cell-based; conditions: c32, 48 h
[23] = test system: Plasmodium falciparum; assay: Growth inhibition of Plasmodium falciparum at >250 uM after 72 hrs by lactate dehydrogenase assay in absence of uridine; type: functional, organism-based
[24] = Therapeutic index, ratio of IC50 for CHO cells to IC50 for Plasmodium falciparum in absence of uridine; type: cell-based; conditions: hamster, CHO cells versus Plasmodium falciparum; read-out: Ratio IC50
[25] = test system: Plasmodium falciparum; assay: Antimalarial activity against Plasmodium falciparum after 72 hrs by lactate dehydrogenase assay in absence of uridine; type: functional, organism-based
[26] = Therapeutic index, ratio of IC50 for CHO cells to IC50 for Plasmodium falciparum in presence of uridine; type: cell-based; conditions: hamster, CHO cells versus Plasmodium falciparum; read-out: Ratio IC50
[27] = test system: Plasmodium falciparum; assay: Antimalarial activity against Plasmodium falciparum after 72 hrs by lactate dehydrogenase assay in presence of uridine; type: functional, organism-based
[28] = test system: CHO; assay: Cytotoxicity against CHO cells assessed as growth inhibition after 48 hrs by MTT assay in absence of uridine; type: cell-based; conditions: Cricetulus griseus
[29] = test system: Plasmodium chabaudi; assay: Antimalarial activity against Plasmodium chabaudi chabaudi infected in ip dosed BALB/C mouse; type: functional, organism-based
[30] = test system: Plasmodium falciparum; assay: Antimalarial activity against chloroquine/multidrug-resistant Plasmodium falciparum SB after 72 hrs by lactate dehydrogenase assay; type: functional, organism-based
[31] = test system: Plasmodium falciparum; assay: Antimalarial activity against chloroquine/multidrug-resistant Plasmodium falciparum MB after 72 hrs by lactate dehydrogenase assay; type: functional, organism-based
[32] = test system: Plasmodium falciparum; assay: Antimalarial activity against chloroquine/mefloquine-resistant Plasmodium falciparum KC98358 after 72 hrs by lactate dehydrogenase assay; type: functional, organism-based; conditions: KC98358, 72 h
[33] = test system: Plasmodium falciparum; assay: Antimalarial activity against chloroquine/mefloquine-resistant Plasmodium falciparum KC98 after 72 hrs by lactate dehydrogenase assay; type: functional, organism-based; conditions: KC98, 72 h
[34] = test system: Plasmodium falciparum; assay: Antimalarial activity against chloroquine-resistant Plasmodium falciparum ItG after 72 hrs by lactate dehydrogenase assay; type: functional, organism-based
[35] = test system: Plasmodium falciparum; assay: Antimalarial activity against Plasmodium falciparum 3D7 after 72 hrs by lactate dehydrogenase assay; type: functional, organism-based; conditions: 3D7, 72 h

For C[n+]1cnn(CCCCCCCCCCCCn2c[n+](C)cn2)c1, the Activity [1] was “Active”.
For CCC(=O)OC[C@H]1O[C@@H](n2c(I)cc(=O)[nH]c2=O)[C@H](O)[C@@H]1O, the Activity [2] was “inactive” and the IC50 [3] was 85 µM.
For CCCC(=O)OC[C@H]1O[C@@H](n2c(I)cc(=O)[nH]c2=O)[C@H](O)[C@@H]1O, the Activity [4] was “Active” and the IC50 [3] was 166 µM.
In the case of CC[C@H]1OC(=O)[C@H](C)[C@@H](O[C@H]2C[C@@](C)(OC)[C@@H](O)[C@H](C)O2)[C@H](C)[C@@H](O[C@@H]2O[C@H](C)C[C@H](N(C)C)[C@H]2O)[C@](C)(O)C[C@@H](C)CN(C)[C@H](C)[C@@H](O)[C@]1(C)O, the Activity [5] is reported as “inactive”.
In the case of O=c1cc(I)n([C@@H]2O[C@H](CO)[C@@H](O)[C@H]2O)c(=O)[nH]1, the Activity [6] is reported as “inactive”, the Activity [7] is reported as “Toxic” and the Selectivity Index [8] is reported as 2. For the same compound, the Activity [9] was “Toxic”, the Activity [10] was “Toxic” and the Activity [11] was “Non-toxic”. For the same compound, the Activity [12] was “Active”, the Activity [13] was “Active” and the Activity [14] was “Active”. For the same compound, the Activity [15] was “Active”, the Activity [16] was “inactive” and the Activity [17] was “Active”. For the same compound, the Activity [18] was “Active”, the Activity [19] was “inactive” and the Activity [20] was “Active”. For the same compound, the Activity [21] was “Toxic”, the Activity [22] was “Non-toxic” and the “growth inhibition (GI)” value [23] was “Active”. The selectivity ratio [24] was 38, the IC50 [25] was 13.2 µM and the selectivity ratio [26] was 35. The IC50 [27] was 11.2 µM, the IC50 [28] was 491 µM and the IC50 [29] was 300 µM. For the same compound, the IC50 [3] was 56.5 µM, the IC50 [1] was 303 µM and the IC50 [30] was 29.1 µM. The IC50 [31] was 18.7 µM, the IC50 [32] was 1.4 µM and the IC50 [33] was 2.3 µM. The IC50 [34] was 1.2 µM and the IC50 [35] was 27 µM.
